How the values were obtained:
Rattus norvegicus [1] = assay: Anti-hypertensive activity in Wistar rat assessed as diastolic blood pressure at 10 mg/kg, iv after 180 mins (reference value: 77.15 to 94.4 mmHg); format: functional
Rattus norvegicus [2] = assay: Anti-hypertensive activity in Wistar rat assessed as diastolic blood pressure at 10 mg/kg, iv after 30 mins (reference value: 77.15 to 94.4 mmHg); format: functional
Mus musculus [3] = assay: Acute toxicity in Swiss mouse assessed as cholesterol level in serum up to 2000 mg/kg, po measured on day 14 post dose (reference value: […]); format: organism-based; conditions: in vivo
Mus musculus [4] = assay: Acute toxicity in Swiss mouse assessed as neutrophil level up to 2000 mg/kg, po measured on day 14 post dose (reference value: 14.56%); format: organism-based; conditions: in vivo
Mus musculus [5] = assay: Acute toxicity in Swiss mouse assessed as AST level in serum up to 2000 mg/kg, po measured on day 14 post dose (reference value: 162.53 +/- 5.455 IU/L); format: organism-based; conditions: in vivo
Mus musculus [6] = assay: Acute toxicity in Swiss mouse assessed as change in body weight up to 2000 mg/kg, po measured once in a week up to 13 days post dose; format: organism-based; conditions: in vivo, 312 h
Rattus norvegicus [7] = assay: Anti-hypertensive activity in Wistar rat assessed as diastolic blood pressure at 10 mg/kg, iv after 150 mins (reference value: 77.15 to 94.4 mmHg); format: functional
Mus musculus [8] = assay: Acute toxicity in Swiss mouse assessed as total protein level in serum up to 2000 mg/kg, po measured on day 14 post dose (reference value: 4.844 +/- 0.222 g/dl); format: organism-based; conditions: in vivo
Rattus norvegicus [9] = assay: Anti-hypertensive activity in Wistar rat assessed as systolic blood pressure at 10 mg/kg, iv after 120 mins (reference value: 110 to 124.6 mmHg); format: functional
Mus musculus [10] = assay: Acute toxicity in Swiss mouse assessed as ALT level in serum up to 2000 mg/kg, po measured on day 14 post dose (reference value: 49.87 +/- 3.277 IU/L); format: organism-based; conditions: in vivo
Mus musculus [11] = assay: Acute toxicity in Swiss mouse assessed as RBC count up to 2000 mg/kg, po measured on day 14 post dose (reference value: 8.97 +/- 3.15 10^6/microL); format: organism-based; conditions: in vivo
Mus musculus [12] = assay: Acute toxicity in Swiss mouse assessed as hemoglobin level up to 2000 mg/kg, po measured on day 14 post dose (reference value: 12.342 +/- 4.42 g/dl); format: organism-based; conditions: in vivo
Mus musculus [13] = assay: Acute toxicity in Swiss mouse assessed as mean corpuscular volume up to 2000 mg/kg, po measured on day 14 post dose (reference value: 44.85 +/- 17.65 fL); format: organism-based; conditions: in vivo
Rattus norvegicus [14] = assay: Anti-hypertensive activity in Wistar rat assessed as systolic blood pressure at 10 mg/kg, iv after 60 mins (reference value: 110 to 124.6 mmHg); format: functional
Mus musculus [15] = assay: Acute toxicity in Swiss mouse assessed as serum creatinine level up to 2000 mg/kg, po measured on day 14 post dose (reference value: 0.418 +/- 0.0259 mg/dl); format: organism-based; conditions: in vivo
Mus musculus [16] = assay: Acute toxicity in Swiss mouse assessed as effect on feed up to 2000 mg/kg, po measured up to 13 days post dose; format: organism-based; conditions: in vivo, 312 h
Rattus norvegicus [17] = assay: Anti-hypertensive activity in Wistar rat assessed as diastolic blood pressure at 10 mg/kg, iv after 120 mins (reference value: 77.15 to 94.4 mmHg); format: functional
Rattus norvegicus [18] = assay: Anti-hypertensive activity in Wistar rat assessed as diastolic blood pressure at 10 mg/kg, iv after 60 mins (reference value: 77.15 to 94.4 mmHg); format: functional
Mus musculus [19] = assay: Acute toxicity in Swiss mouse assessed as eosinophil level up to 2000 mg/kg, po measured on day 14 post dose (reference value: 2.233%); format: organism-based; conditions: in vivo
Mus musculus [20] = assay: Acute toxicity in Swiss mouse assessed as mean corpuscular hemoglobin up to 2000 mg/kg, po measured on day 14 post dose (reference value: 13.78 +/- 5.29 pg); format: organism-based; conditions: in vivo
Rattus norvegicus [21] = assay: Anti-hypertensive activity in Wistar rat assessed as diastolic blood pressure at 10 mg/kg, iv after 5 mins (reference value: 77.15 to 94.4 mmHg); format: functional
Rattus norvegicus [22] = assay: Anti-hypertensive activity in Wistar rat assessed as systolic blood pressure at 10 mg/kg, iv after 15 mins (reference value: 110 to 124.6 mmHg); format: functional
Mus musculus [23] = assay: Acute toxicity in Swiss mouse assessed as effect on water consumption up to 2000 mg/kg, po measured up to 13 days post dose; format: organism-based; conditions: in vivo, 312 h
Mus musculus [24] = assay: Acute toxicity in Swiss mouse assessed as monocytes level up to 2000 mg/kg, po measured on day 14 post dose (reference value: 3.66%); format: organism-based; conditions: in vivo
Mus musculus [25] = assay: Acute toxicity in Swiss mouse assessed as mortality up to 2000 mg/kg, po measured up to 13 days post dose; format: organism-based; conditions: in vivo, 312 h
Rattus norvegicus [26] = assay: Anti-hypertensive activity in iv dosed Wistar rat assessed as decrease in blood pressure up to 180 mins; format: functional, organism-based
Rattus norvegicus [27] = assay: Anti-hypertensive activity in Wistar rat assessed as systolic blood pressure at 10 mg/kg, iv after 5 mins (reference value: 110 to 124.6 mmHg); format: functional
Rattus norvegicus [28] = assay: Anti-hypertensive activity in Wistar rat assessed as systolic blood pressure at 10 mg/kg, iv after 180 mins (reference value: 110 to 124.6 mmHg); format: functional
Mus musculus [29] = assay: Acute toxicity in Swiss mouse assessed as serum triglyceride level up to 2000 mg/kg, po measured on day 14 post dose (reference value: […]); format: organism-based; conditions: in vivo
Mus musculus [30] = assay: Acute toxicity in Swiss mouse assessed as platelet level up to 2000 mg/kg, po measured on day 14 post dose (reference value: 1542.71 +/- 474.34 10^3/microL); format: organism-based; conditions: in vivo
Mus musculus [31] = assay: Acute toxicity in Swiss mouse assessed as basophil level up to 2000 mg/kg, po measured on day 14 post dose (reference value: 0.1%); format: organism-based; conditions: in vivo
Mus musculus [32] = assay: Acute toxicity in Swiss mouse assessed as hematocrit up to 2000 mg/kg, po measured on day 14 post dose (reference value: 40.114 +/- 14.74%); format: organism-based; conditions: in vivo
Mus musculus [33] = assay: Acute toxicity in Swiss mouse assessed as lymphocytes level up to 2000 mg/kg, po measured on day 14 post dose (reference value: 79.433%); format: organism-based; conditions: in vivo
Mus musculus [34] = assay: Acute toxicity in Swiss mouse assessed as change in general appearance up to 2000 mg/kg, po measured up to 13 days post dose; format: organism-based; conditions: in vivo, 312 h
Mus musculus [35] = assay: Acute toxicity in Swiss mouse assessed as uric acid level in serum up to 2000 mg/kg, po measured on day 14 post dose (reference value: […]); format: organism-based; conditions: in vivo
Mus musculus [36] = assay: Acute toxicity in Swiss mouse assessed as serum urea level up to 2000 mg/kg, po measured on day 14 post dose (reference value: 55.157 +/- 2.769 mg/dl); format: organism-based; conditions: in vivo
Rattus norvegicus [37] = assay: Anti-hypertensive activity in Wistar rat assessed as diastolic blood pressure at 10 mg/kg, iv after 15 mins (reference value: 77.15 to 94.4 mmHg); format: functional
Rattus norvegicus [38] = assay: Anti-hypertensive activity in Wistar rat assessed as systolic blood pressure at 10 mg/kg, iv after 150 mins (reference value: 110 to 124.6 mmHg); format: functional
Mus musculus [39] = assay: Acute toxicity in Swiss mouse assessed as WBC count up to 2000 mg/kg, po measured on day 14 post dose (reference value: 8.35 +/- 4.53 10^3/microL); format: organism-based; conditions: in vivo
Mus musculus [40] = assay: Acute toxicity in Swiss mouse assessed as serum glucose level up to 2000 mg/kg, po measured on day 14 post dose (reference value: 105.78 +/- 5.217 mg/dl); format: organism-based; conditions: in vivo
Rattus norvegicus [41] = assay: Anti-hypertensive activity in Wistar rat assessed as systolic blood pressure at 10 mg/kg, iv after 30 mins (reference value: 110 to 124.6 mmHg); format: functional

## O=C(c1ccccc1Nc1ccncc1)N1CC[C@H](O)C1
Rattus norvegicus [1]
  Activity: 79.06 mmHg
Rattus norvegicus [2]
  Activity: 62.55 mmHg
Mus musculus [3]
  Activity: 83 mg/dL
Mus musculus [4]
  Activity: 8.828%
Mus musculus [5]
  Activity: 145.84 IU/L
Mus musculus [6]
  Activity: Non-Toxic
Rattus norvegicus [7]
  Activity: 73 mmHg
Mus musculus [8]
  Activity: 5.224 g/dL
Rattus norvegicus [9]
  Activity: 85.46 mmHg
Mus musculus [10]
  Activity: 50.587 IU/L
Mus musculus [11]
  Activity: 9.684 ×10⁶ /uL
Mus musculus [12]
  Activity: 13.342 g/dL
Mus musculus [13]
  Activity: 41.3 fL
Rattus norvegicus [14]
  Activity: 79.29 mmHg
Mus musculus [15]
  Activity: 0.435 mg/dL
Mus musculus [16]
  Activity: Non-Toxic
Rattus norvegicus [17]
  Activity: 69.81 mmHg
Rattus norvegicus [18]
  Activity: 64.09 mmHg
Mus musculus [19]
  Activity: 3.457%
Mus musculus [20]
  Activity: 13.77 pg
Rattus norvegicus [21]
  Activity: 66.01 mmHg
Rattus norvegicus [22]
  Activity: 82.41 mmHg
Mus musculus [23]
  Activity: Non-Toxic
Mus musculus [24]
  Activity: 3.128%
Mus musculus [25]
  Activity: Non-Toxic
Rattus norvegicus [26]
  Activity: Dose-dependent effect
Rattus norvegicus [27]
  Activity: 88 mmHg
Rattus norvegicus [28]
  Activity: 108.8 mmHg
Mus musculus [29]
  Activity: 89.6 mg/dL
Mus musculus [30]
  Activity: 1458.42 ×10³ /uL
Mus musculus [31]
  Activity: 0.0714%
Mus musculus [32]
  Activity: 40.1%
Mus musculus [33]
  Activity: 84.514%
Mus musculus [34]
  Activity: Non-Toxic
Mus musculus [35]
  Activity: 2.81 mg/dL
Mus musculus [36]
  Activity: 54.885 mg/dL
Rattus norvegicus [37]
  Activity: 64.33 mmHg
Rattus norvegicus [38]
  Activity: 87.13 mmHg
Mus musculus [39]
  Activity: 10.185 ×10³ /uL
Mus musculus [40]
  Activity: 111.51 mg/dL
Rattus norvegicus [41]
  Activity: 80.19 mmHg

Reference: ChEMBL document CHEMBL3877319, “Synthesis of Ofornine mimics from natural product l-vasicine as anti-hypertensive agents” (Bioorg Med Chem, 2017)
